Assay results as given in patent US20100075978A1, “SULFONAMIDE DERIVATIVES AS BRADYKININ ANTAGONISTS” (priority 2006, published 2010).
Where a name gives a salt, the structure may show the parent alone.

Experiments:
[1] = biological target: T1, human recombinant bradykinin B1 receptor (Homo sapiens, UniProt P46663); test: Human recombinant bradykinin B1 receptor binding; details: radioligand [3H]-[Des-Arg10] Kallidin, CHO cell membranes; read-out: B1 binding
T1 construct: purchased Euroscreen ES-091; host or cells: CHO cells
T1 sequence (P46663 1-353): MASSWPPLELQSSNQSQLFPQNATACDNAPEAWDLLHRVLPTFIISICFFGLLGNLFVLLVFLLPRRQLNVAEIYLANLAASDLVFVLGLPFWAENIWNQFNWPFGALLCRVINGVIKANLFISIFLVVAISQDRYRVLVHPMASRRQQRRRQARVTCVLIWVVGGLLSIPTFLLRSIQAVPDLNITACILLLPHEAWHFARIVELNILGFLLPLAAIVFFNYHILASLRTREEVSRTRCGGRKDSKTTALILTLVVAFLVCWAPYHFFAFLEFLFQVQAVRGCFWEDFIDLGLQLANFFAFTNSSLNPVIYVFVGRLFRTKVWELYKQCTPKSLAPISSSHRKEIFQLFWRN
Description: 1. Human Recombinant Bradykinin B1 Receptor Binding
Binding assays were carried out on human recombinant bradykinin) receptors (expressed in CHO cells) according to the Euroscreen Technical Data Sheet (Cat.No.:ES-091). 20 μg protein/tube was incubated with [3,4-prolyl-3,4-^3H(N)]-[Des-Arg^10] Kallidin as radioligand. Non specific binding was determined in the presence of 10 μM Lys-des-Arg^9-Bradykinin. The final incubation volume was 250 μl. Samples were incubated for 15 min. at 25° C. then were rapidly vacuum filtered through GF/B filters presoaked for at least 1 h in 0.5% PEI. Radioactivity was determined by liquid scintillation spectroscopy.

[2] = biological target: T2, recombinant human B1 receptors (Homo sapiens, UniProt P46663); test: Functional assay: cytosolic calcium ion concentration measured with plate reader fluorimeter in CHO-B1 cells, agonist LysDABK; format: cell-based; details: CHO-B1 cells, LysDABK at EC80, [Ca2+]i; read-out: B1 func.
T2 construct: host or cells: CHO (CHO-B1)
T2 sequence (P46663 1-353): T1 sequence (P46663 1-353)
Description: Assessment of Antagonist Potency at B1 and B2 Receptors In Vitro by Measurement of Cytosolic Calcium Ion Concentration with a Plate Reader Fluorimeter in Cells Expressing Recombinant Human B1 or B2 Receptors
Chinese hamster ovary (CHO) cells stably expressing recombinant human B1 (CHO-B1, Euroscreen) or B2 (CHO-B2, Perkin-Elmer) receptors were cultured in Dulbecco's Modified Eagle's Medium (DMEM) containing 10% Fetal Calf Serum (FCS), 100 U/ml penicillin, 0.1 mg/ml streptomycin, 0.25 μg/ml amphotericin B, 1% Minimum Essential Medium Eagle (MEM), non essential amino acid solution, 600 μg/ml G418, 1% pyruvate (for the B2 cell line). Cells were kept at 37° C. in a humidified incubator in an atmosphere of 5% CO2/95% air and were passaged 1:4 three times a week. Cells were plated at 1.5-2.5×10^4 cell/well on standard 96-well microplates, measurements of cytosolic calcium ion concentration ([Ca^2+]i) were carried out 1-2 days after cell plating.
Measurements of [Ca^2+]i were carried out on CHO-B1 and CHO-B2 cells stably expressing human B1 and B2 receptors, respectively. Cells were grown in standard 96-well microplates and before the measurement were loaded with a fluorescent Ca^2+-sensitive dye, fluo-4/AM (2 μM): after removing the culture medium the dye was added to the cells (dissolved in assay buffer: 145 mM NaCl, 5 mM KCl, 2 mM MgCl2, 2 mM CaCl2, 10 mM HEPES, 20 mM D-glucose, 2 mM probenecid, 100 μl/well) and cells were incubated at 37° C. in a humidified incubator in an atmosphere of 5% CO2/95% air for 40-120 min. To stop dye loading cells were washed twice with assay buffer. After washing, various concentrations of the test compounds (diluted in extracellular medium from a DMSO stock solution, final DMSO concentration was <0.1%) or buffer were added to each well depending on the experimental setup. After incubation at 37° C. for 20-25 min. baseline and agonist-evoked changes of [Ca^2+]i were measured column by column with a plate reader fluorimeter (Fluoroskan Ascent, Labsystems). Excitation and detection of emission was carried out from the bottom of the plate. Filters used for Fluo-4: excitation filter—485 nm, emission filter—538 nm. The whole measurement process was performed at 37° C. and was controlled by custom software. Inhibitory potency of the test compounds was assessed by measuring the reduction in the agonist-evoked [Ca^2]i-elevation in the presence of different concentrations of the compounds. The agonists were LysDABK for CHO-B1, and bradykinin for CHO-B2 cells. Agonists were applied at an EC80 concentration, the EC80-values were derived from daily determined dose-response curves. Fluorescence data were expressed as ΔF/F (fluorescence change normalized to baseline). All treatments on a single plate were measured in multiple wells. Data from all wells with the same treatment were averaged and the average values were used for analysis. Inhibitory potency of a compound at a single concentration point was expressed as percent inhibition of the control agonist response. Sigmoidal concentration-inhibition curves were fitted to the data (derived from at least three independent experiments) and IC50-values were determined as the concentration that produces half of the maximal inhibition caused by the compound.

SMILES | Ki [1] | IC50 [2]
O=C(CCNC(=O)c1ccc(S(=O)(=O)Nc2ccccc2Oc2ccc(Cl)cc2Cl)cc1)NCC1CCNCC1 [Example 37, 4-[2-(2,4-Dichloro-phenoxy)-phenylsulfamoyl]-N-{2-[(piperidin-4-ylmethyl)-carbamoyl]-ethyl}-benzamide acetate/hydrochloride mixed salt] | 0.02 to 0.1 µM | 0.02 to 0.1 µM
O=C(CCNC(=O)c1ccc(S(=O)(=O)Nc2ccccc2Oc2ccc(Cl)cc2Cl)cc1)NCCC1CCNCC1 [Example 56, 4-[2-(2,4-Dichloro-phenoxy)-phenylsulfamoyl]-N-[2-(2-piperidin-4-yl-ethylcarbamoyl)-ethyl]-benzamide hydrochloride] | < 0.02 µM | 0.02 to 0.1 µM
O=C(N[C@H]1CC[C@H](CCN2CCCC2)CC1)c1ccc(S(=O)(=O)Nc2ccccc2Oc2ccc(Cl)c(Cl)c2)cc1 [Example 64, trans-4-[2-(3,4-Dichloro-phenoxy)-phenylsulfamoyl]-N-[4-(2-pyrrolidin-1-yl-ethyl)-cyclohexyl]-benzamide] | 0.02 to 0.1 µM | 0.02 to 0.1 µM
O=C(NCCN1CCN(Cc2ccccn2)CC1)c1ccc(S(=O)(=O)Nc2ccccc2Oc2ccc(Br)cc2)cc1 [Example 99, 4-[2-(4-Bromo-phenoxy)-phenylsulfamoyl]-N-[2-(4-pyridin-2-ylmethyl-piperazin-1-yl)-ethyl]-benzamide] | 0.02 to 0.1 µM | 0.02 to 0.1 µM
O=C(NCCCCC1CCNCC1)c1ccc(S(=O)(=O)Nc2ccccc2Oc2ccc(Br)cc2)cc1 [Example 101, 4-[2-(4-Bromo-phenoxy)-phenylsulfamoyl]-N-(4-piperidin-4-yl-butyl)-benzamide hydrochloride] | 0.02 to 0.1 µM | 0.02 to 0.1 µM
O=C(NCCCN1CCC(N2CCCCC2)CC1)c1ccc(S(=O)(=O)Nc2ccccc2Oc2ccc(Br)cc2)cc1 [Example 111, N-(3-[1,4′]Bipiperidinyl-1′-yl-propyl)-4-[2-(4-bromo-phenoxy)-phenylsulfamoyl]-benzamide] | < 0.02 µM | < 0.02 µM
O=C(NCCCN1CCC(N2CCCCC2)CC1)c1ccc(S(=O)(=O)Nc2ccccc2Oc2ccc(F)cc2Cl)cc1 [Example 116, N-(3-[1,4′]Bipiperidinyl-1′-yl-propyl)-4-[2-(2-chloro-4-fluoro-phenoxy)-phenylsulfamoyl]-benzamide] | < 0.02 µM | < 0.02 µM
O=C(Nc1ccc(N2CCC(N3CCCCC3)CC2)cc1)c1ccc(S(=O)(=O)Nc2ccccc2Oc2ccc(C(F)(F)F)cc2)cc1 [Example 127, N-(4-[1,4′]Bipiperidinyl-1′-yl-phenyl)-4-[2-(4-trifluoromethyl-phenoxy)-phenylsulfamoyl]-benzamide] | 0.02 to 0.1 µM | < 0.02 µM
O=C(NCCCN1CCC(N2CCCCC2)CC1)c1ccc(S(=O)(=O)Nc2ccccc2Oc2ccc(C(F)(F)F)cc2)cc1 [Example 129, N-(3-[1,4′]Bipiperidinyl-1′-yl-propyl)-4-[2-(4-trifluoromethyl-phenoxy)-phenylsulfamoyl]-benzamide] | 0.02 to 0.1 µM | 0.02 to 0.1 µM
COc1cc(Cl)ccc1Oc1ccccc1NS(=O)(=O)c1ccc(C(=O)NCCCN2CCC(N3CCCCC3)CC2)cc1 [Example 132, N-(3-[1,4′]Bipiperidinyl-1′-yl-propyl)-4-[2-(4-chloro-2-methoxy-phenoxy)-phenylsulfamoyl]-benzamide] | < 0.02 µM | 0.02 to 0.1 µM
O=C(NCCCCC1CCNCC1)c1ccc(S(=O)(=O)Nc2ccccc2Oc2ccc(F)cc2Cl)cc1 [Example 135, 4-[2-(2-Chloro-4-fluoro-phenoxy)-phenylsulfamoyl]-N-(4-piperidin-4-yl-butyl)-benzamide hydrochloride] | 0.02 to 0.1 µM | 0.02 to 0.1 µM
O=C(NCCCC1CCNCC1)c1ccc(S(=O)(=O)Nc2ccccc2Oc2ccc(Cl)cc2Cl)cc1 [Example 137, 4-[2-(2,4-Dichloro-phenoxy)-phenylsulfamoyl]-N-(3-piperidin-4-yl-propyl)-benzamide trifluoracetate] | 0.02 to 0.1 µM | 0.02 to 0.1 µM

The remaining lines, values ahead:

Ki [1] | IC50 [2] | SMILES
0.02 to 0.1 µM | 0.02 to 0.1 µM | Cc1ccnc(N2CCN(CCNC(=O)c3ccc(S(=O)(=O)Nc4ccccc4Oc4ccc(Cl)cc4Cl)cc3)CC2)c1 [Example 54, 4-[2-(2,4-Dichloro-phenoxy)-phenylsulfamoyl]-N-{2-[4-(4-methyl-pyridin-2-yl)-piperazin-1-yl]-ethyl}-benzamide]
< 0.02 µM | < 0.02 µM | O=C(Nc1ccc(N2CCC(N3CCCCC3)CC2)cc1)c1ccc(S(=O)(=O)Nc2cc(F)ccc2Oc2ccc(Br)cc2)cc1 [Example 58, N-(4-[1,4′]Bipiperidinyl-1′-yl-phenyl)-4-[2-(4-bromo-phenoxy)-5-fluoro-phenylsulfamoyl]-benzamide]
< 0.02 µM | < 0.02 µM | O=C(NCCC(=O)N1CCC(N2CCCCC2)CC1)c1ccc(S(=O)(=O)Nc2ccccc2Oc2ccc(Cl)cc2Cl)cc1 [Example 62, N-(3-[1,4′]Bipiperidinyl-1′-yl-3-oxo-propyl)-4-[2-(2,4-dichloro-phenoxy)-phenylsulfamoyl]-benzamide trifluoroacetate]
0.02 to 0.1 µM | 0.02 to 0.1 µM | O=C(NCCCN1CCCCC1)c1ccc(S(=O)(=O)Nc2ccccc2Oc2ccc(Cl)cc2Cl)cc1 [Example 76, 4-[2-(2,4-Dichloro-phenoxy)-phenylsulfamoyl]-N-(3-piperidin-1-yl-propyl)-benzamide]
0.1 to 0.5 µM | 0.1 to 0.5 µM | O=C(c1ccc(S(=O)(=O)Nc2ccccc2Oc2ccc(Cl)c(Cl)c2)cc1)N1CCN(CCCN2CCCCC2)CC1 [Example 87, N-[2-(3,4-Dichloro-phenoxy)-phenyl]-4-[4-(3-piperidin-1-yl-propyl)-piperazine-1-carbonyl]-benzenesulfonamide]
< 0.02 µM | < 0.02 µM | O=C(NCCCN1CCC(N2CCCCC2)CC1)c1ccc(S(=O)(=O)Nc2cc(F)ccc2Oc2ccc(Br)cc2)cc1 [Example 102, N-(3-[1,4′]Bipiperidinyl-1′-yl-propyl)-4-[2-(4-bromo-phenoxy)-5-fluoro-phenylsulfamoyl]-benzamide]
< 0.02 µM | < 0.02 µM | O=C(NCCCN1CCN(c2ccncc2)CC1)c1ccc(S(=O)(=O)Nc2cc(F)ccc2Oc2ccc(Br)cc2)cc1 [Example 105, 4-[2-(4-Bromo-phenoxy)-5-fluoro-phenylsulfamoyl]-N-[3-(4-pyridin-4-yl-piperazin-1-yl)-propyl]-benzamide]
< 0.02 µM | < 0.02 µM | O=C(NCCCN1CCN(c2ccncc2)CC1)c1ccc(S(=O)(=O)Nc2ccccc2Oc2ccc(Br)cc2)cc1 [Example 114, 4-[2-(4-Bromo-phenoxy)-phenylsulfamoyl]-N-[3-(4-pyridin-4-yl-piperazin-1-yl)-propyl]-benzamide]
0.02 to 0.1 µM | 0.02 to 0.1 µM | O=C(N[C@H]1CC[C@H](CCN2CCCC2)CC1)c1ccc(S(=O)(=O)Nc2ccccc2Oc2ccc(F)cc2Cl)cc1 [Example 121, trans-4-[2-(2-Chloro-4-fluoro-phenoxy)-phenylsulfamoyl]-N-[4-(2-pyrrolidin-1-yl-ethyl)-cyclohexyl]-benzamide]
